Reference: patent US8557853B2, “Aryl fluoroethyl ureas acting as alpha 2 adrenergic agents” (Allergan, Inc., priority 2007, dated 2013)
Read-outs that look alike come from different tables or passages of the source.

How the values were obtained:
Format in all cases: cell-based
alpha2B receptor = biological target: T1, alpha2B receptor (Homo sapiens, UniProt P18089); experiment: RSAT (Receptor Selection and Amplification Technology) assay, alpha 2B; conditions: for Alpha 2B IA: intrinsic activity: ratio of maximal effect of drug to maximal effect of standard full agonist brimonidine (UK14304)
T1 construct: expressed in transfected cells; host or cells: NIH-3T3 cells
T1 sequence (P18089 1-450): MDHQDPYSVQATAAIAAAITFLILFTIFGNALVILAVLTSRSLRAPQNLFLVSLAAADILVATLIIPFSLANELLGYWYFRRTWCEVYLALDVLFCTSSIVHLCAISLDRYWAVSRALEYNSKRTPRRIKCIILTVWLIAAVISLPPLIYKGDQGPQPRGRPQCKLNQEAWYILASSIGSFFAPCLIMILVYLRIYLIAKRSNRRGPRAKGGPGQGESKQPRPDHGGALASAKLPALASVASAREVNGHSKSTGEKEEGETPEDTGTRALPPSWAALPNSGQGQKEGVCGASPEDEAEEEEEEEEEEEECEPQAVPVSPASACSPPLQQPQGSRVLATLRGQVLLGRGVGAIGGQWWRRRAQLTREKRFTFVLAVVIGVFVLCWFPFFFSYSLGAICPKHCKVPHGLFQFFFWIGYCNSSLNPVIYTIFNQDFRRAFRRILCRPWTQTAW
Protocol: (§1) The RSAT assay measures a receptor-mediated loss of contact inhibition that results in selective proliferation of receptor-containing cells in a mixed population of confluent cells. The increase in cell number is assessed with an appropriate transfected marker gene such as ∃-galactosidase, the activity of which can be easily measured in a 96-well format. Receptors that activate the G protein, Gq, elicit this response. Alpha 2 receptors, which normally couple to Gi, activate the RSAT response when coexpressed with a hybrid Gq protein that has a Gi receptor recognition domain, called Gq/i5.
(§2) NIH-3T3 cells are plated at a density of 2×10^6 cells in 15 cm dishes and maintained in Dulbecco's modified Eagle's medium supplemented with 10% calf serum. One day later, cells are cotransfected by calcium phosphate precipitation with mammalian expression plasmids encoding p-SV-β-galactosidase (5-10 μg), receptor (1-2 μg) and G protein (1-2 μg). 40 μg salmon sperm DNA may also be included in the transfection mixture. Fresh media is added on the following day and 1-2 days later, cells are harvested and frozen in 50 assay aliquots. Cells are thawed and 100 μl added to 100 μl aliquots of various concentrations of drugs in triplicate in 96-well dishes. Incubations continue 72-96 hr at 37° C. After washing with phosphate-buffered saline, ∃-galactosidase enzyme activity is determined by adding 200 μl of the chromogenic substrate (consisting of 3.5 mM o-nitrophenyl-β-D-galactopyranoside and 0.5% nonidet P-40 in phosphate buffered saline), incubating overnight at 30° C. and measuring optical density at 420 nm. The absorbance is a measure of enzyme activity, which depends on cell number and reflects a receptor-mediated cell proliferation. The efficacy or intrinsic activity is calculated as a ratio of the maximal effect of the drug to the maximal effect of a standard full agonist for each receptor subtype. Brimonidine, also called UK14304, the chemical structure of which is shown below, is used as the standard agonist for the alpha2A, alpha2B and alpha2C receptors.

alpha2A receptor = biological target: T2, alpha2A receptor (Homo sapiens, UniProt P08913); experiment: RSAT (Receptor Selection and Amplification Technology) assay, alpha 2A; conditions: for EC50 / Alpha 2A EC50: RSAT, transfected NIH-3T3 cells, "not active" = not active at concentrations less than 10 micromolar; for Alpha 2A IA: intrinsic activity: ratio of maximal effect of drug to maximal effect of standard full agonist brimonidine (UK14304)
T2 construct: expressed in transfected cells; host or cells: NIH-3T3 cells
T2 sequence (P08913 1-465): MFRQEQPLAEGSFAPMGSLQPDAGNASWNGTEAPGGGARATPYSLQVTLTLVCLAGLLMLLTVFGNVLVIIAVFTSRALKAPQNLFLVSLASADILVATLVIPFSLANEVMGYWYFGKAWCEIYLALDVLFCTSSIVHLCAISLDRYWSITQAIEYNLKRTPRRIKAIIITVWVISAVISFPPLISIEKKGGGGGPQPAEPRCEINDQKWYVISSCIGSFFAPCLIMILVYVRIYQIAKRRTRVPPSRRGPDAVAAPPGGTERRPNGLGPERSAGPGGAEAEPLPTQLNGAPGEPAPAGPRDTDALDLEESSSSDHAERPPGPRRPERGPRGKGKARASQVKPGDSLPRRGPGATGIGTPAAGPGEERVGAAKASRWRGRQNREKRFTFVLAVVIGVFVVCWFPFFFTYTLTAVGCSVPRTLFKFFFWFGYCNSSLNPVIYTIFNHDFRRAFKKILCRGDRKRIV
Text: (§3) The aryl fluoroethyl ureas of the invention are agonists of alpha2 adrenergic receptors. […] Al, 1995, Pharmacol. Toxicol. 76, pp. 308-311 (incorporated herein by reference) and is also described below. Another reference pertinent to this assay is Conklin et al. (1993) Nature 363:274-6, Receptor Selection and Amplification Technology (RSAT) assay, also incorporated herein by reference.
as §1, §2
(§4) The results of the RSAT assay with several exemplary compounds of the invention are disclosed in Table 1 below together with the chemical structures of these compounds. “Not active” means the compounds are not active at concentrations less than 10 micromolar.

alpha2C receptor = biological target: T3, alpha2C receptor (Homo sapiens, UniProt P18825); experiment: RSAT (Receptor Selection and Amplification Technology) assay, alpha 2C; conditions: for EC50 / Alpha 2C EC50: RSAT, transfected NIH-3T3 cells, "not active" = not active at concentrations less than 10 micromolar; for Alpha 2C IA: intrinsic activity: ratio of maximal effect of drug to maximal effect of standard full agonist brimonidine (UK14304)
T3 construct: expressed in transfected cells; host or cells: NIH-3T3 cells
T3 sequence (P18825 1-462): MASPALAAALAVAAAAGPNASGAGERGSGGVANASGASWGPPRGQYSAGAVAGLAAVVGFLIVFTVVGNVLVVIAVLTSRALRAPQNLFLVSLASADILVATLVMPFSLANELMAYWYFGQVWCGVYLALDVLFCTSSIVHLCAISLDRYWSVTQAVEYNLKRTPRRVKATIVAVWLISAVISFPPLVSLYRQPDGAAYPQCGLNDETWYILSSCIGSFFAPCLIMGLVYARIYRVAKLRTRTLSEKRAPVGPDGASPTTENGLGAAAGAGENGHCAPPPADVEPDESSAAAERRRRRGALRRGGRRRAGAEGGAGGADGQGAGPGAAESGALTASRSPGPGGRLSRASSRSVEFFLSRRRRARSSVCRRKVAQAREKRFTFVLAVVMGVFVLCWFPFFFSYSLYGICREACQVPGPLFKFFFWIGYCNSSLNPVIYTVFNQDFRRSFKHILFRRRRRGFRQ
Text: as §3, §1, §2, §4

[1] = RSAT, transfected NIH-3T3 cells, "not active" = not active at concentrations less than 10 micromolar, read-out: Alpha 2B EC50

SMILES	EC50 (alpha2B receptor; [1]) [µM]	Alpha 2B IA (alpha2B receptor)	EC50 (alpha2A receptor) [µM]	Alpha 2A IA (alpha2A receptor)	EC50 (alpha2C receptor) [µM]	Alpha 2C IA (alpha2C receptor)	Alpha 2C EC50 (alpha2C receptor)	Alpha 2A EC50 (alpha2A receptor)	EC50 (alpha2B receptor) [µM]
Cc1cccc(C)c1NC(=O)NCCF [Compound 23, 1-(2,6-dimethyl-phenyl)-3-(2-fluoro-ethyl)-urea]	0.679	0.75	> 2	0.61	> 2	0.43			
Cc1nn(C)c(C)c1CNC(=O)NCCF [Compound 43, 1-(2-fluoro-ethyl)-3-(1,3,5-trimethyl-1H-pyrazol-4-ylmethyl)-urea]	2.39	0.49	4.2	0.30			not active		
Cc1cccnc1CNC(=O)NCCF [Compound 37, 1-(2-fluoro-ethyl)-3-(3-methyl-pyridin-2-ylmethyl)-urea]		0.40					not active	not active	3.54
COc1c(Br)cccc1CNC(=O)NCCF [Compound 19, 1-(3-bromo-2-methoxy-benzyl)-3-(2-fluoro-ethyl)-urea]	2.53	0.83					not active	not active	
Cc1ccnc(CNC(=O)NCCF)c1 [Compound 39, 1-(2-Fluoro-ethyl)-3-(4-methyl-pyridin-2-ylmethyl)-urea]	0.343	0.77	2.17	0.36	1.56	0.61			
O=C(NCCF)NCc1ccccn1 [Compound 35, 1-(2-fluoro-ethyl)-3-pyridin-2-ylmethyl-urea]		0.75			3.71	0.38		not active	1.99
Cc1cccc(C(NC(=O)NCCF)c2ccc(C)s2)c1 (centres unmarked) [Compound 34, 1-(2-fluoro-ethyl)-3-[(5-methyl-thiophen-2-yl)-m-tolyl-methyl]-urea]	0.829	0.41					not active	not active	
Cc1ccc(CNC(=O)NCCF)o1 [Compound 40, 1-(2-fluoro-ethyl)-3-(5-methyl-furan-2-ylmethyl)-urea]		0.83			2.63	0.56		not active	0.968
O=C(NCCF)Nc1cccc2ccccc12 [Compound 30, 1-(2-fluoro-ethyl)-3-naphthalen-1-yl-urea]	0.458	0.9	1.06	0.74	> 2	0.66			

Now from value to compound, other results behind:

EC50 (alpha2B receptor; [1]) [µM]	Alpha 2B IA (alpha2B receptor)	EC50 (alpha2A receptor) [µM]	Alpha 2A IA (alpha2A receptor)	EC50 (alpha2C receptor) [µM]	Alpha 2C IA (alpha2C receptor)	Alpha 2C EC50 (alpha2C receptor)	Alpha 2A EC50 (alpha2A receptor)	SMILES	EC50 (alpha2B receptor) [µM]
0.066	0.99	0.302	0.63	0.513	0.64			C[C@H](NC(=O)NCCF)c1ccccc1 [Compound 33, (−)-(S)-1-(2-Fluoro-ethyl)-3-(1-phenyl-ethyl)-urea]	
0.157	0.87	0.385	0.43	0.285	0.74			O=C(NCCF)Nc1cccc2c1CCCC2 [Compound 28, 1-(2-fluoro-ethyl)-3-(5,6,7,8-tetrahydro-naphthalen-1-yl)-urea]	
0.277	0.89			0.489	0.78		not active	O=C(NCCF)NCc1ccccc1I [Compound 12, 1-(2-fluoro-ethyl)-3-(2-iodo-benzyl)-urea]	
0.137	0.81	3.52	0.33	1.06	0.67			O=C(NCCF)NCc1cccc(O)c1 [Compound 42, 1-(2-fluoro-ethyl)-3-(3-hydroxy-benzyl)-urea]	
0.115	0.33					not active	not active	O=C(NCCF)Nc1ccc2c(c1)CCC2 [Compound 21, 1-(2-fluoro-ethyl)-3-indan-5-yl-urea]	
0.088	1.26	0.98	0.48	0.876	0.74			Cc1cccc(CNC(=O)NCCF)c1 [Compound 5, 1-(2-fluoro-ethyl)-3-(3-methyl-benzyl)-urea]	
0.124	1.0	1.75	0.54	1.13	0.71			O=C(NCCF)NCc1cccc(Cl)c1F [Compound 1, 1-(3-chloro-2-fluoro-benzyl)-3-(2-fluoro-ethyl)-urea]	
0.088	0.91			0.446	0.86		not active	O=C(NCCF)NCc1cccc(Cl)c1Cl [Compound 10, 1-(2,3-dichloro-benzyl)-3-(2-fluoro-ethyl)-urea]	
